Test results reported in PubChem BioAssay AID1648 (Sanford-Burnham Center for Chemical Genomics, 2009).
The source made the active and inactive calls. The rule behind the calls is not given here.

Target: Serine/threonine-protein kinase mTOR (Homo sapiens) (UniProt P42345)
Assay: binders of mTOR FRB domain, biophysical, NMR (AID 1648)
Conditions: NMR binding to FRB domain, chemical shift

Chain of Serine/threonine-protein kinase mTOR (Homo sapiens) (P42345 2015-2114): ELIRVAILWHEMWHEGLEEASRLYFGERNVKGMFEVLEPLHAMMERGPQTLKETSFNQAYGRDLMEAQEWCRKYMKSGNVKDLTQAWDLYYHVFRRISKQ

| SMILES | Kd |
| --- | --- |
| C=CCNC(=O)c1ccc(Cl)cc1Cl | > 4 mM (inactive) |
| CCNS(=O)(=O)c1ccc(OC)c(C)c1 | > 4 mM (inactive) |
| CC(=O)Nc1nnc(-c2ccccc2)o1 | > 4 mM (inactive) |
| O=C(O)c1cccnc1 | > 4 mM (inactive) |
| CCCNC(=O)CSc1nnc(C)s1 | > 4 mM (inactive) |
| OCCNc1nc2ccc(Cl)cc2[nH]1 | > 4 mM (inactive) |
| CC(C)(CO)NC(=O)c1ccccc1F | > 4 mM (inactive) |
| Nc1cccc(OC(F)(F)F)c1 | > 4 mM (inactive) |
| COc1ccc(C(C)=O)c(OC)c1 | > 4 mM (inactive) |
| O=C(CC1CCCCC1)N1CCN(c2ccccn2)CC1 | > 4 mM (inactive) |
| CNC(=O)c1ccccc1N | > 4 mM (inactive) |
| CS(=O)(=O)N/N=C/c1cccs1 | > 4 mM (inactive) |
| O=C(c1cc(-c2ccccc2)on1)N1CCCC1 | > 4 mM (inactive) |
| CSc1ccc(S(=O)(=O)N2CCCC2)cc1 | > 4 mM (inactive) |
| CS(=O)(=O)N1CCN(C(=O)c2ccccc2F)CC1 | > 4 mM (inactive) |
| O=S1(=O)C=CC(Nc2ccccc2)C1 (stereo unspecified) | > 4 mM (inactive) |
| CN1CCN(CC(=O)Nc2ccccc2)CC1 | > 4 mM (inactive) |
| COc1cccc(N2CCNCC2)c1 | > 4 mM (inactive) |
| Cn1nc(C(C)(C)C)cc1N | > 4 mM (inactive) |
| CC(=O)Nc1ccc(Cl)c(C(N)=O)c1 | > 4 mM (inactive) |
| Nc1cccc(-n2cnnn2)c1 | > 4 mM (inactive) |
| Nc1ccccc1C(=O)N1CCNC(=O)C1 | > 4 mM (inactive) |
| O=C1C2CC=C(Cl)CC2C(=O)N1c1ccccc1O (stereo unspecified) | > 4 mM (inactive) |

| SMILES | Kd |
| --- | --- |
| COc1ccc(-c2cc(=O)c3c(O)cc(O[C@@H]4O[C@H](CO[C@H]5O[C@H](C)[C@@H](O)[C@H](O)[C@@H]5O)[C@@H](O)[C@H](O)[C@H]4O)cc3o2)cc1O | > 4 mM (inactive) |
| O=S(=O)(NCc1ccco1)N1CCOCC1 | > 4 mM (inactive) |
| Oc1ccccc1N1CCCC1 | > 4 mM (inactive) |
| CC(C)=CCC[C@](C)(O)C1CC=C(C)CC1 (stereo partly specified) | > 4 mM (inactive) |
| Cc1cccc(NC(=O)c2ccccc2C(=O)O)c1 | > 4 mM (inactive) |
| NC(=O)c1sc2ccccc2c1Cl | > 4 mM (inactive) |
| CS(=O)(=O)Nc1nnc(Cc2ccccc2)s1 | > 4 mM (inactive) |
| COc1cc(N)ccc1NC(=O)c1cccs1 | > 4 mM (inactive) |
| O=C1CSC2(CN3CCC2CC3)N1 (stereo unspecified) | > 4 mM (inactive) |
| O=C(NS(=O)(=O)c1ccccc1)c1ccccc1F | > 4 mM (inactive) |
| C=C[C@@](C)(O)CCC1C(=C)CCC2[C@@](C)(CO)CCC[C@]12C (stereo partly specified) | > 4 mM (inactive) |
| CCOC(=O)c1nc2ccccc2c(=O)n1N | > 4 mM (inactive) |
| Fc1ccc2onc(C3CCNCC3)c2c1 | > 4 mM (inactive) |
| O=C(O)CSCc1ccc(Cl)cc1 | > 4 mM (inactive) |
| O=C(COc1ccccc1O)NCCO | > 4 mM (inactive) |
| COc1ccc(N2CC(=O)NC2=O)cc1 | > 4 mM (inactive) |
| Cc1ccc(F)cc1NC(=O)c1ccc2c(c1)OCO2 | > 4 mM (inactive) |
| CNS(=O)(=O)c1cccs1 | > 4 mM (inactive) |
| O=C1CC(=O)N(c2ccccc2)C(=O)N1 | > 4 mM (inactive) |
| CCOC(=O)C1=C(C)N2CCN=C2S1 | > 4 mM (inactive) |
| Cc1nc(NC2=NCCC(=O)N2)nc2ccccc12 | > 4 mM (inactive) |
| S=C=NCc1ccccc1 | > 4 mM (inactive) |
| C=CC(C)(O)CC/C=C(\C)CCC=C(C)C (stereo unspecified) | > 4 mM (inactive) |

| SMILES | Kd |
| --- | --- |
| CS(=O)(=O)Nc1ccc(C(=O)N2CCCCC2)cc1 | > 4 mM (inactive) |
| O=C1NNC(=O)C2C3c4ccccc4C(c4ccccc43)C12 (stereo unspecified) | > 4 mM (inactive) |
| C/C=C(/C)C(=O)O[C@H]1CC[C@@]2(C)[C@@H]3CC[C@H]4[C@]5(O)C[C@H](O)[C@@]6(O)[C@@H](CN7C[C@@H](C)CC[C@H]7[C@@]6(C)O)[C@]5(O)C[C@@]42OC13O | > 4 mM (inactive) |
| CNC(=O)CC1Sc2ccccc2NC1=O (stereo unspecified) | > 4 mM (inactive) |
| COc1ccc(C2(CN)CCOCC2)cc1OC | > 4 mM (inactive) |
| Cc1cc(C(=O)NCc2ccco2)cs1 | > 4 mM (inactive) |
| OCc1csc(-c2cccs2)n1 | > 4 mM (inactive) |
| NC(=O)CSCc1c(Cl)cccc1Cl | > 4 mM (inactive) |
| Cc1onc(-c2c(F)cccc2Cl)c1C(N)=O | > 4 mM (inactive) |
| O=C(NCc1n[nH]c(=O)c2ccccc12)C1CC1 | > 4 mM (inactive) |
| Cc1noc(C)c1C(=O)Nc1ccccn1 | > 4 mM (inactive) |
| CCNC(=S)N1CCCC(C(N)=O)C1 (stereo unspecified) | > 4 mM (inactive) |
| O=C1c2ccccc2C(=O)N1OCc1ccccc1 | > 4 mM (inactive) |
| O=C(NC(=S)NCc1cccnc1)c1ccco1 | > 4 mM (inactive) |
| COc1ccc(-c2cn[nH]c2N)c(OC)c1 | > 4 mM (inactive) |
| Nc1nnc(COc2cccc(C(F)(F)F)c2)s1 | > 4 mM (inactive) |
| Cc1cc(O)c(C)c(O)c1C(=O)O | > 4 mM (inactive) |
| O=C(O)c1[nH]nc2c1COc1ccccc1-2 | > 4 mM (inactive) |
| O=P(O)(Cc1ccccc1)c1ccccc1 | > 4 mM (inactive) |
| COCc1cc(=O)oc2cc(O)c(Cl)cc12 | > 4 mM (inactive) |
| NNC(=O)c1ccccc1-n1cccc1 | > 4 mM (inactive) |
| O=c1[nH]c(O)c(C=NC2CC2)c(=O)[nH]1 | > 4 mM (inactive) |
| Cc1nnc(SCc2cccs2)[nH]c1=O | > 4 mM (inactive) |

| SMILES | Kd |
| --- | --- |
| CCC(C)C(NC)C(=O)O (stereo unspecified) | > 4 mM (inactive) |
| O=C(O)c1ccc2nsnc2c1 | > 4 mM (inactive) |
| O=C(Nn1cnnc1)c1cccc(C(F)(F)F)c1 | > 4 mM (inactive) |
| Cc1nc2c(=O)[nH]c3ccccc3c2o1 | > 4 mM (inactive) |
| CC(=O)NN1C(=O)/C(=C\c2ccc(O)cc2)SC1=S | > 4 mM (inactive) |
| Cn1c(SCCC(=O)O)nnc1-c1cccnc1 | > 4 mM (inactive) |
| NC(=O)c1cccc2c(=O)oc3ccccc3c12 | > 4 mM (inactive) |
| COc1ccc2c(c1OC)C(=O)N(c1ncn[nH]1)C2 | > 4 mM (inactive) |
| CN1CCC(N2CCCC(C(N)=O)C2)CC1 (stereo unspecified) | > 4 mM (inactive) |
| O=C1c2cccnc2C(=O)N1Cc1ccc2c(c1)OCO2 | > 4 mM (inactive) |
| O=c1c(O)c(-c2ccccc2)oc2ccc3occc3c12 | > 4 mM (inactive) |
| Fc1ccc(-c2n[nH]c(=S)n2CC2CCCO2)cc1 (stereo unspecified) | > 4 mM (inactive) |
| CN1CCC(NC(=O)c2cnccn2)CC1 | > 4 mM (inactive) |
| N=Cc1c(O)n(-c2cccc(Cl)c2)c(=O)[nH]c1=O | > 4 mM (inactive) |
| O=C(Nc1ncccn1)c1cccc(F)c1 | > 4 mM (inactive) |
| CC(=O)Nc1nnc(-c2ccncc2)s1 | > 4 mM (inactive) |
| NC(=O)c1cccnc1Oc1ccccc1 | > 4 mM (inactive) |
| O=C1NC(=S)N/C1=C/c1ccsc1 | > 4 mM (inactive) |
| O=C1CCCc2c1nc(-c1ccccc1)n2O | > 4 mM (inactive) |
| COc1ccc2c(c1)OCC(Cc1ccc(OC)c(OC)c1)C2=O (stereo unspecified) | > 4 mM (inactive) |
| Cc1ccc2c(c1)CC[C@H]1CC(=O)CC[C@]21C | > 4 mM (inactive) |
| O=C(O)C(Cc1cnc[nH]1)N1C(=O)c2ccccc2C1=O (stereo unspecified) | > 4 mM (inactive) |
